Experimental data: patent US11492346B2, “Benzisoxazole sulfonamide derivatives” (Pfizer Inc., priority 2019, dated 2022)
Read-outs that look alike come from different tables or passages of the source.

Experiments:
[1] = biological target: KAT8 (Homo sapiens (Human), UniProt Q9H7Z6); assay: KAT assay (SAMDI mass spectrometry), KAT8; format: biochemical
Description: (§1) Prepare 10 mM stock solutions in 100% DMSO from solid material • 2. Serial dilute 10 mM, 1 mM or 0.1 mM compound stocks 3-fold in 100% DMSO for 11-point dose response
(§2) Prepare 1× assay buffer containing 10 mM Tris HCL pH 8.0, 2.5 mM NaCl, 0.5 mM EDTA, 0.005% BSG and 0.02% Tween-20 • 2. Dilute Histone peptide (CPC Scientific) and AcCoA (Sigma) together in assay buffer to 2×. • 3. Dilute KAT enzyme in assay buffer to 2×.
(§3) Enzyme reaction • 1. Final reaction conditions for each KAT assay in a 20 ul assay reaction volume: • i. KAT5 25 nM, 1 uM AcCoA, 2 uM H4 1-21 peptide, 30-minute reaction • ii. KAT6A 15 nM, 1 uM AcCoA, 2 uM H3 1-21 peptide, 45-minute reaction • iii. KAT6B 25 nM, 1 uM AcCoA, 2 uM H3 1-21 peptide, 60-minute reaction • iv. KAT7 12.5 nM, 1 uM AcCoA, 2 uM H3 1-21 peptide, 45-minute reaction • v. KAT8 15 nM, 1 uM AcCoA, 2 uM H3 1-21 peptide, 45-minute reaction • 2. Add 0.5 ul of diluted compound to the assay plate (384-well V-bottom polypropylene plates) or 0.5 ul of DMSO for control wells. • 3. Add 10 ul of 2× Histone peptide/2×AcCoA mix to the assay plate. • 4. Add 10 ul of 2× enzyme to the assay plate. • 5. Stop the reaction after the indicated time with the addition of 2 ul of 5% formic acid • 6. Each reaction was analyzed using self-assembled monolayer desorption/ionization time-of-flight mass spectrometry (Mrksich, Milan (2008) Mass Spectrometry of Self-Assembled Monolayers: A New Tool for Molecular Surface Science ACS Nano 2008 2 (1), 7-18; SAMDI Tech, Inc. (Chicago, Ill.)). • 7. Area under the curve (AUC) for both substrate and product peaks was determined for KAT5 at M.W. 2561 [Substrate+H]^+ and 2603 [Product+H]^+ with a +/−1 Da tolerance, respectively • 8. Area under the curve (AUC) for both substrate and product peaks was determined for KAT6a, KAT6B, KAT7 and KAT8 at M.W. 2723 [Substrate+H]^+ and 2765 [Product+H]^+ with a +/−1 Da tolerance, respectively. […] Percent conversion to product was calculated by: AUCProduct/(AUCsubstrate+AUCProduct).
(§4) IC50 values were determined by fitting the % conversion at each inhibitor concentration to the 4-parameter IC50 equation using Pfizer proprietary curve fitting software. • 2. Ki values were determined by fitting the % conversion at each inhibitor concentration to the Morrison equation for tightbinding competitive inhibitors using Pfizer proprietary curve fitting software.
(§5) KAT enzymes were expressed using a baculovirus expression system and purified at Pfizer, La Jolla. […] Acetyl coenzyme A was purchased from Sigma-Aldrich (St. Louis, Mo.). All other biochemical reagents were purchased from Sigma-Aldrich or ThermoFisher Scientific (Waltham, Mass.).
(§6) KAT assays were performed at room temperature in assay buffer containing 1 μM AcCoA, 2 μM histone peptide, 10 mM Tris HCL pH 8.0, 2.5 mM NaCl, 0.5 mM EDTA, 0.005% BSG and 0.02% Tween-20. 10 ul of 2× Histone peptide/AcCoA mix was added to a 384-well V-bottom polypropylene assay plate containing 0.5 ul of serially diluted test compound in 100% dimethyl sulfoxide (DMSO). To start the reaction, 10 ul of 2× enzyme solution was added to the assay plate. KAT assays were terminated after 30-60 minutes with the addition of 2 ul of 5% formic acid. All assays used histone H3 (1-21) peptide except for the KAT5 assay which used histone H4 (1-21) peptide. The final enzyme concentration for each KAT was as follows: KAT5, 25 nM; KAT6A, 15 nM; KAT6B, 25 nM; KAT7, 12.5 nM; KAT8 15 nM. Each reaction was analyzed using self-assembled monolayer desorption/ionization time-of-flight mass spectrometry (Mrksich, Milan (2008) Mass Spectrometry of Self-Assembled Monolayers: A New Tool for Molecular Surface Science ACS Nano 2008 2 (1), 7-18; SAMDI Tech, Inc. (Chicago, Ill.)).
(§7) Area under the curve (AUC) for both substrate and product peaks was determined for KAT5 at M.W. 2561 [Substrate+H]^+ and 2603 [Product+H]^+ with a +/−1 Da tolerance, respectively.

[2] = biological target: KAT7 (Homo sapiens (Human), UniProt O95251); assay: KAT assay (SAMDI mass spectrometry), KAT7; format: biochemical;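 further: Baculovirus-expressed enzyme acetylating a histone peptide at room temperature, percent conversion from product and substrate peak areas, Ki from a Morrison tight-binding competitive fit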
Description: as §1, §2, §3, §4, §5, §6, §7

[3] = biological target: KAT6A (Homo sapiens (Human), UniProt Q92794); assay: KAT assay (SAMDI mass spectrometry), KAT6A; format: biochemical;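 further: Baculovirus-expressed KAT6A acetylating histone H3 (1-21) peptide (2 µM), 30-60 min at room temperature, % product conversion fitted to Morrison equation for tight-binding competitive inhibitors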
Sequence of KAT6A (Q92794 whole entry): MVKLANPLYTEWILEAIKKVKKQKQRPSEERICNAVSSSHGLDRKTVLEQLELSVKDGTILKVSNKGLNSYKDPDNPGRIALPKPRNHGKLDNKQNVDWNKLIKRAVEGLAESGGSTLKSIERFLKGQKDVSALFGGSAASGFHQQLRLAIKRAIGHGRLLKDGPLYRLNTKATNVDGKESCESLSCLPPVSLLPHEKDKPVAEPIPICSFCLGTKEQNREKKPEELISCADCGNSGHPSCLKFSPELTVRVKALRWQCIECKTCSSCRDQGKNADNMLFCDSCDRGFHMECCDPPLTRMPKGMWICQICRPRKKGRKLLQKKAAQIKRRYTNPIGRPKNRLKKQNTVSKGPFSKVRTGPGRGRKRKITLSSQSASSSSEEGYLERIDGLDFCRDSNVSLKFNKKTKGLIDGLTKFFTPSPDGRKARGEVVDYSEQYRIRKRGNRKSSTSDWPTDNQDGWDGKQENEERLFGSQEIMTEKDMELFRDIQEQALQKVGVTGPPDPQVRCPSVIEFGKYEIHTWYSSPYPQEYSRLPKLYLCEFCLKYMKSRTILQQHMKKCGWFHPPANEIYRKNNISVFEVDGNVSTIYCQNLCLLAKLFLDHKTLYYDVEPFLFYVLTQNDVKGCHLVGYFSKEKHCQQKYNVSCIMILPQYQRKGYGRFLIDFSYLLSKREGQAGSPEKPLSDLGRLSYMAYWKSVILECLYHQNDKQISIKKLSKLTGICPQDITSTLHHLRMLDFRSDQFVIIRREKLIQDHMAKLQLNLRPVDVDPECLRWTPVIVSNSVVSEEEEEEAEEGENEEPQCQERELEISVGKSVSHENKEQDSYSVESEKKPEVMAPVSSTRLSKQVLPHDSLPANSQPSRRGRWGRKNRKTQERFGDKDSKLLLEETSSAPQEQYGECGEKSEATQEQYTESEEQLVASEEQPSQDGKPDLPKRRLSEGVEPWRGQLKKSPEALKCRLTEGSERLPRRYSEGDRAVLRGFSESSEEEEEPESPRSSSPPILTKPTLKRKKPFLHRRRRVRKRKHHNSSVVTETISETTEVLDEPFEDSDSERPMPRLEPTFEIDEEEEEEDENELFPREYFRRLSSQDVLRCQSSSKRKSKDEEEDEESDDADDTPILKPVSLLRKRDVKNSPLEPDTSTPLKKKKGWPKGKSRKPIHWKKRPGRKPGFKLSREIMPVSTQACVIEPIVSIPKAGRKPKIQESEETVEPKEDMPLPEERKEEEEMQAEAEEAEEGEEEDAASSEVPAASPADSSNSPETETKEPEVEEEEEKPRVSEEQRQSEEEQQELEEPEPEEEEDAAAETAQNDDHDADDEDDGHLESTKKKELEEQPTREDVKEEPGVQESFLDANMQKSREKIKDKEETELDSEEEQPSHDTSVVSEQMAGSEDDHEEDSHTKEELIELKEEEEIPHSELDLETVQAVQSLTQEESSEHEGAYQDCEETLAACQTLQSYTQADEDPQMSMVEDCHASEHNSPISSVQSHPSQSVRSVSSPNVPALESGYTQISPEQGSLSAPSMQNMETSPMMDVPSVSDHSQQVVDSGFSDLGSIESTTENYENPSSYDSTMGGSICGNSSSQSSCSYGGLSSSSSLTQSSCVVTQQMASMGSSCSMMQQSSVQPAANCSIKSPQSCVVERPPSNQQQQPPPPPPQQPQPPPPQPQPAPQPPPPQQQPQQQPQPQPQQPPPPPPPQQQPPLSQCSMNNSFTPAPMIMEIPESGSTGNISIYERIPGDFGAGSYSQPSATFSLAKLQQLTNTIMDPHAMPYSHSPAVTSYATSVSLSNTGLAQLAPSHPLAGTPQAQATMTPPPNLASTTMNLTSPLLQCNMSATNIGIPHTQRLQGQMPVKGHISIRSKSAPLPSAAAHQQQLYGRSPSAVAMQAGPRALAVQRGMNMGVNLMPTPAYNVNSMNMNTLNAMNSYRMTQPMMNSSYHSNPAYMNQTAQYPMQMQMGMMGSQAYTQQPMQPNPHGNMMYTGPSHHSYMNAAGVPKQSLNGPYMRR
Description: as §1, §2, §3, §4, §5, §6, §7

[4] = biological target: KAT5 (Homo sapiens (Human), UniProt Q92993); assay: KAT assay (SAMDI mass spectrometry), KAT5; format: biochemical;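 further: Baculovirus-expressed KAT5 acetylating a histone H4 peptide at room temperature, read as percent conversion to product, Ki from a Morrison tight-binding competitive fit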
Sequence of KAT5 (Q92993 whole entry): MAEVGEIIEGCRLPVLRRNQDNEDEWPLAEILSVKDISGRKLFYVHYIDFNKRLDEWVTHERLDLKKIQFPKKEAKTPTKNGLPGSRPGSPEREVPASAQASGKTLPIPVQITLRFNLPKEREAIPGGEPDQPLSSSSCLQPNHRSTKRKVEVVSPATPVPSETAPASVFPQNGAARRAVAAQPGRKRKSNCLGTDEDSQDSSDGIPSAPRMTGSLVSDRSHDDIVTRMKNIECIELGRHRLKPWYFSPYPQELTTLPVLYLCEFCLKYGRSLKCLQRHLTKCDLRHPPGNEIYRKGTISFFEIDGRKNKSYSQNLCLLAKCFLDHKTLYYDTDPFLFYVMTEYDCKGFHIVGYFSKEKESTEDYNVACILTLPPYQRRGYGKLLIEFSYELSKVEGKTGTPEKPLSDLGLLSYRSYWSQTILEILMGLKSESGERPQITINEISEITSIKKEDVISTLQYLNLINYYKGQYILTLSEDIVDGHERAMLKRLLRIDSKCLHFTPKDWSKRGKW
Description: as §1, §2, §3, §4, §5, §6, §7

[5] = biological target: KAT6B (Homo sapiens (Human), UniProt Q8WYB5); assay: KAT assay (SAMDI mass spectrometry), KAT6B; format: biochemical
[6] = system: histone H3K23 acetylation in U2OS cells; assay: Histone H3 Lysine 23 Acetylation Biomarker Assay; format: cell-based; settings: Homo sapiens, 24 hours incubation
Description: Compounds were tested for their ability to inhibit acetylation of the histone H3K23 marker in the following assay:
The cell line U2OS was seeded at a density of 9,000 cells per well in 96 well optical quality tissue culture plates in RPMI medium and 10% foetal bovine serum, and allowed to adhere for 24 hours under standard culture conditions (37 degree Celsius, 5% CO2). At the end of this period the medium was aspirated. […] After incubation for 24 hours, the cells were fixed with 3.7% formaldehyde in PBS for 20 minutes at room temperature, washed (5×5 minutes) with phosphate buffer saline containing 0.1% Tween 20 and blocked with Odyssey blocking buffer (LI-COR, Lincoln, Nebr.) containing 0.1% TritonX100. Anti-H3K23ac specific antibody (Abcam ab177275) in Odyssey blocking buffer containing 0.1% Tween 20 was added and incubated for 16 hours at 4 degree Celsius. After washing (as above), a secondary antibody labelled with Alexa647 dye (LifeTechnologies) and Hoechst 33342 (1 μg/mL, SigmaAldrich) were added for 1 hour incubation. Plates were washed as previously and read on a PerkinElmer Phenix high content imaging platform. Using a Columbus image analysis pipeline, individual nuclei were located by Hoechst 33342 stain and the acetylation level was calculated from the Alexa647-related intensity in the same area.

[7] = biological target: MOZ-KAT6A (Homo sapiens (Human), UniProt Q92794); assay: biochemical
Sequence of MOZ-KAT6A (Q92794 other isoform, or with tags, fused parts or gaps): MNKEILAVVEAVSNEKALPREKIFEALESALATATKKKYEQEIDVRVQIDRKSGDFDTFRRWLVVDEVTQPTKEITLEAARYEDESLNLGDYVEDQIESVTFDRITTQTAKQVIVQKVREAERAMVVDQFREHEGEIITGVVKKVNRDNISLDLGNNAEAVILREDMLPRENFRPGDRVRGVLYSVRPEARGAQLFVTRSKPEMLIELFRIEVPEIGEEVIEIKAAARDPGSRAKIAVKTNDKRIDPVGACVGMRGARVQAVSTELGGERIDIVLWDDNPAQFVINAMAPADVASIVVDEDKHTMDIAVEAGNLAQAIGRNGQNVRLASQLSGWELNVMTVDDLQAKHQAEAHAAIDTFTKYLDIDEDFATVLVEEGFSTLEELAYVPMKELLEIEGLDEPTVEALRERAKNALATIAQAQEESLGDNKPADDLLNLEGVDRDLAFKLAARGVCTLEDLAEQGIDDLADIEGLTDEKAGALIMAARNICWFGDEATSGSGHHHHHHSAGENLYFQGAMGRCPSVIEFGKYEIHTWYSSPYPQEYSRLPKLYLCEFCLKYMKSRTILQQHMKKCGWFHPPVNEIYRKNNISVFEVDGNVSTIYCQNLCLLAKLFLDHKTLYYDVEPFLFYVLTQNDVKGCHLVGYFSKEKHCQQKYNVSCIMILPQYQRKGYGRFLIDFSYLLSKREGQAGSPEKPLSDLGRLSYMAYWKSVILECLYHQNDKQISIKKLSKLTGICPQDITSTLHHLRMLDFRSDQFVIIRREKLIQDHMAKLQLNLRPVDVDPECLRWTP

[8] = system: histone H3 Lysine 14 acetylation in U2OS cells; assay: Histone H3 Lysine 14 Acetylation Biomarker Assay; format: cell-based; settings: Homo sapiens, serum free medium, 24 hours incubation
Description: Compounds were tested for their ability to inhibit acetylation of the histone H3 Lysine 14 marker in the following assay:
The cell line U2OS was seeded at a density of 3,000 cells per well in 384-well optical quality tissue culture plates in RPMI medium supplemented with 10% foetal bovine serum and 10 mM Hepes. The cells were allowed to adhere for 24 hours under standard culture conditions (37 degree Celsius, 5% CO2). At the end of this period the cells were washed with serum free medium. […] After incubation for 24 hours, the cells were fixed with 4% formaldehyde in PBS for 15 minutes at room temperature, washed with phosphate buffer saline and blocked with blocking buffer containing 0.2% TritonX100 and 2% BSA. Anti-H3K14ac specific antibody (Cell Signalling Technologies) in blocking buffer was added and incubated overnight at 4 degree Celsius. After washing, a secondary antibody labelled with AlexaFluor 488 dye (ThermoFisher) and Hoechst 33342 (1 μg/mL, Life Technologies) were added for 2 hours incubation at room temperature. Plates were washed and read on a PerkinElmer Opera HCS high content imaging platform. Using a Columbus image analysis pipeline, individual nuclei were located by Hoechst 33342 stain and the acetylation level was calculated from the AlexaFluor 488-related intensity in the same area.

[9] = biological target: HBO1-KAT7 (Homo sapiens (Human), UniProt O95251); assay: biochemical
Sequence of HBO1-KAT7 (O95251 other isoform, or with tags, fused parts or gaps): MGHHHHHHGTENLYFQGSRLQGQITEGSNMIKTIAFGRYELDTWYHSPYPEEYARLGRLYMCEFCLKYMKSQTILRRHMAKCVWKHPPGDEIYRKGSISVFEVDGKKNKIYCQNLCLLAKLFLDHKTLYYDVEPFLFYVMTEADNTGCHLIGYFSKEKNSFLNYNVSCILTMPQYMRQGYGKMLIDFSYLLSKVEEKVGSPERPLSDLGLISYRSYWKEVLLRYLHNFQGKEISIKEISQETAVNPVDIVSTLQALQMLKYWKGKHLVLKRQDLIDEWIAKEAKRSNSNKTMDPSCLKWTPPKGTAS

[10] = biological target: TIP60-KAT5 (Homo sapiens (Human), UniProt Q92993); assay: biochemical
Sequence of TIP60-KAT5 (Q92993 other isoform, or with tags, fused parts or gaps): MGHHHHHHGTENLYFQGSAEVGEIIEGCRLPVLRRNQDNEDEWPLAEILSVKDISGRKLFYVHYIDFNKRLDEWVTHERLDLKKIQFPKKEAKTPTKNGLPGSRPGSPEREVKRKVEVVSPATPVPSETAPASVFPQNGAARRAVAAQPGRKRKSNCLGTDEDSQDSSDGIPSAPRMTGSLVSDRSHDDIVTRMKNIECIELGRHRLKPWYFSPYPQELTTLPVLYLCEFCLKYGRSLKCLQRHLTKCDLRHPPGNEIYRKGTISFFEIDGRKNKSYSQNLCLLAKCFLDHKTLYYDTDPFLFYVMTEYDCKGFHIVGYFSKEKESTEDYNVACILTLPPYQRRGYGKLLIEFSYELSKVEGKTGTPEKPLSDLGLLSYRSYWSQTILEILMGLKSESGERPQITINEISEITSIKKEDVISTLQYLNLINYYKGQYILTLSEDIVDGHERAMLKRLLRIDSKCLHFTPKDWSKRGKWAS

[11] = system: histone H2A.Z Lysine 7 acetylation in U2OS cells; assay: H2A.Z Lysine 7 Acetylation Biomarker Assay; format: cell-based; settings: Homo sapiens, serum free medium, 24 hours incubation
Description: Compounds were tested for their ability to inhibit the histone H2A.Z Lysine 7 acetylation marker in the following assay: The cell line U2OS was seeded at a density of 3,000 cells per well in 384-well optical quality tissue culture plates in RPMI medium supplemented with 10% foetal bovine serum and 10 mM Hepes. The cells were allowed to adhere for 24 hours under standard culture conditions (37 degree Celsius, 5% CO2). At the end of this period the cells were washed with serum free medium. […] 2018, at 30 μM concentration. After incubation for 24 hours, the cells were fixed with 4% formaldehyde in PBS for 15 minutes at room temperature, washed with phosphate buffer saline and blocked with blocking buffer containing 0.2% TritonX100 and 2% BSA. Anti-H2A.ZK7ac specific antibody (Abcam) in blocking buffer was added and incubated overnight at 4 degree Celsius. After washing, a secondary antibody labelled with AlexaFluor 488 dye (ThermoFisher) and Hoechst 33342 (1 μg/mL, Life Technologies) were added for 2 hours incubation at room temperature. Plates were washed and read on a PerkinElmer Opera HCS high content imaging platform. Using a Columbus image analysis pipeline, individual nuclei were located by Hoechst 33342 stain and the acetylation level was calculated from the AlexaFluor 488-related intensity in the same area.

[12] = read-out: KAT8 Ki at 1 μM AcCoA
[13] = read-out: KAT7 Ki at 1 μM AcCoA
[14] = read-out: KAT6a Ki at 1 μM AcCoA, 1 μM AcCoA
[15] = read-out: KAT6a Ki at 10 μM AcCoA, 10 μM AcCoA
[16] = read-out: KAT5 Ki at 1 μM AcCoA
[17] = 25 μM AcCoA, read-out: KAT6b Ki at 25 μM AcCoA

Sequence of KAT8 (Q9H7Z6 whole entry): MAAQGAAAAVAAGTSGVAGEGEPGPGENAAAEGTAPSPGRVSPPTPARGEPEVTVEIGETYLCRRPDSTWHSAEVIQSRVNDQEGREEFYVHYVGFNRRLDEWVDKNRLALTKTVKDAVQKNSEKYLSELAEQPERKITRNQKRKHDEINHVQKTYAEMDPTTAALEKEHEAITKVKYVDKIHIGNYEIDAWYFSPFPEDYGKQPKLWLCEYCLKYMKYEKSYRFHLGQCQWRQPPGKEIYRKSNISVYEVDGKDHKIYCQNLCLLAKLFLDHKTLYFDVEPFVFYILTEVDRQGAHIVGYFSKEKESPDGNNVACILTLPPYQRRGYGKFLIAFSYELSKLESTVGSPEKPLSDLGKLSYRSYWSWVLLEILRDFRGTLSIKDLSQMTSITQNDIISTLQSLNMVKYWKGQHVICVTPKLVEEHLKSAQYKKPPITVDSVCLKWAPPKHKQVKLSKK

SMILES	Ki [1, 12] [nM]	Ki [2, 13] [nM]	Ki [3, 14] [nM]	Ki [4, 16] [nM]	Ki [5, 17] [nM]	also measured
COc1cc(Cn2cccn2)cc2onc(NS(=O)(=O)c3cc(C)c(F)c(C)c3)c12 [Example 78]	12500	540	5.64	9920	26	Ki [3, 15]: 5.73 nM
COc1cc(Cn2cccn2)cc2onc(NS(=O)(=O)c3ccc(C)c(F)c3)c12 [Example 79]	3260	220	5.11	1440	4.27	Ki [3, 15]: 4.98 nM
COc1ccc(S(=O)(=O)Nc2noc3cc(Cn4cccn4)cc(OC)c23)cc1C [Example 84]	12500	190	7.86	4630	12.3	Ki [3, 15]: 5.61 nM
COc1cccc(OC)c1S(=O)(=O)Nc1noc2cc(Cn3cc(CO)cn3)cc(OC)c12 [Example 87, N-(6-{[4-(hydroxymethyl)-1H-pyrazol-1-yl]methyl}-4-methoxy-1,2-benzoxazol-3-yl)-2,6-dimethoxybenzene-1-sulfonamide]	17900	1840	38.6	10800	–	Ki ([5]; read-out: KAT6b Ki at 1 μM AcCoA, 1 μM AcCoA): 133 nM
COc1cccc(OC)c1S(=O)(=O)Nc1noc2cc(Cn3cccn3)c(Br)cc12 [Example 92, N-{5-bromo-6-[(1H-pyrazol-1-yl)methyl]-1,2-benzoxazol-3-yl}-2,6-dimethoxybenzene-1-sulfonamide]	240	30	1.07	110	2.73	Ki [3, 15]: 0.45 nM
COc1cccc(OC)c1S(=O)(=O)Nc1noc2cc(Cn3cccn3)cc(F)c12 [Example 94]	3260	630	5.15	3640	2.5	–
CCc1cc(Cn2cccn2)cc2onc(NS(=O)(=O)c3c(OC)cccc3OC)c12 [Example 95, N-{4-ethyl-6-[(1H-pyrazol-1-yl)methyl]-1,2-benzoxazol-3-yl}-2,6-dimethoxybenzene-1-sulfonamide]	3260	4340	9.88	12500	8.35	–
COc1cccc(OC)c1S(=O)(=O)Nc1noc2cc(Cn3cccn3)cc(C3CC3)c12 [Example 96]	12500	900	1.58	11700	3.67	–
COc1ccc(C2CC2)cc1S(=O)(=O)Nc1noc2cc(Cn3cccn3)cc(OC)c12 [Example 97, 5-cyclopropyl-2-methoxy-N-{4-methoxy-6-[(1H-pyrazol-1-yl)methyl]-1,2-benzoxazol-3-yl}benzene-1-sulfonamide]	1510	120	1.1	1030	2.74	–
COc1cccc(OC)c1S(=O)(=O)Nc1noc2cc(Cn3cccn3)cc(OC)c12 [Example 98, N-(6-((1H-pyrazol-1-yl)methyl)-4-methoxybenzo[d]isoxazol-3-yl)-2,6-dimethoxybenzenesulfonamide]	–	–	–	–	–	IC50 [6]: 0.6 nM
COc1cc(Cn2cccn2)cc2onc(NS(=O)(=O)c3cccc4cc(C)cnc34)c12 [Example 99, N-(6-((1H-pyrazol-1-yl)methyl)-4-methoxybenzo[d]isoxazol-3-yl)-3-methylquinoline-8-sulfonamide]	–	–	–	–	–	IC50 [7]: 13 nM; IC50 [8]: 1550 nM; IC50 [9]: 120 nM; IC50 [10]: 980 nM; IC50 [11]: 11400 nM
COc1cccc(OC)c1S(=O)(=O)Nc1noc2cc(Cn3cc(C)cn3)cc(OC)c12 [Example 100, 2,6-dimethoxy-N-(4-methoxy-6-((4-methyl-1H-pyrazol-1-yl)methyl)benzo[d]isoxazol-3-yl)benzenesulfonamide]	–	–	–	–	–	Ki ([1]; 1 μM AcCoA): 4950 nM; Ki ([2]; KAT7 Ki at 1 μM AcCoA): 610 nM; IC50 [7]: 30 nM; Ki ([3]; KAT6a Ki at 1 μM AcCoA, 1 μM AcCoA): 40.3 nM; IC50 [8]: 1360 nM; IC50 [9]: 340 nM; IC50 [10]: 11200 nM; Ki ([4]; 1 μM AcCoA): 6220 nM; IC50 [11]: 15000 nM; IC50 [6]: 46 nM; Ki ([5]; 1 μM AcCoA): 58.3 nM
COc1cccc(OC)c1S(=O)(=O)Nc1noc2cc(-c3cnn(C)c3)cc(OC)c12 [Example 101, 2,6-dimethoxy-N-(4-methoxy-6-(1-methyl-1H-pyrazol-4-yl)benzo[d]isoxazol-3-yl)benzenesulfonamide]	–	–	–	–	–	IC50 [7]: 1260 nM; IC50 [9]: 1550 nM; IC50 [10]: 11200 nM
COc1cccc(OC)c1S(=O)(=O)Nc1noc2c(-c3cnn(C)c3)cc(C)cc12 [Example 102, 2,6-dimethoxy-N-(5-methyl-7-(1-methyl-1H-pyrazol-4-yl)benzo[d]isoxazol-3-yl)benzenesulfonamide]	–	–	–	–	–	IC50 [7]: 48800 nM; IC50 [8]: 28300 nM; IC50 [9]: 1400 nM; IC50 [10]: > 125000 nM; IC50 [11]: > 40000 nM
